According to patent US8119663B2, “Heteroaryl-substituted piperidines” (Bayer Pharma Aktiengesellschaft, priority 2007, dated 2012):

target: T1, human protease activated receptor 1 (PAR1) (Homo sapiens, UniProt P25116); assay: Cellular functional in vitro test (aequorin luminescence, PAR1 test cell); format: cell-based; settings: recombinant HEK293-derived cell line expressing aequorin; PAR1 agonist added at its EC50 5 minutes after test substance
T1 construct: the cell stably expresses the endogenous human PAR1 receptor and the endogenous purinergic receptor P2Y2; endogenous in cells; host or cells: HEK293-derived recombinant cell line constitutively expressing mitochondrial aequorin
T1 sequence (P25116 22-425): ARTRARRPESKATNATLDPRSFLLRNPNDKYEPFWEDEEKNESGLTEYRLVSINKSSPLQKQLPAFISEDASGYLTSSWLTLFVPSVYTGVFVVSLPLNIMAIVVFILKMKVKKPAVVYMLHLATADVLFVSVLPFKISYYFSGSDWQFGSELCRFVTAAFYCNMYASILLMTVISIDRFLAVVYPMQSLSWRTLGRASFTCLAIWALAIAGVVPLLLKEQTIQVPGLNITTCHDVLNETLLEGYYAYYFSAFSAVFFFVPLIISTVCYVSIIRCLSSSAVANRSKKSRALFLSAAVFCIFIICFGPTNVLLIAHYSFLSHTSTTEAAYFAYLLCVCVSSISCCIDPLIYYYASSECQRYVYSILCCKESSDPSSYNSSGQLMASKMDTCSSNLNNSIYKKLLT
Description: 1.a) Cellular Functional In vitro Test
A recombinant cell line is used to identify […] of the human protease activated receptor 1 (PAR1) and to quantify the activity of the substances described herein. The cell is originally derived from a human embryonal kidney cell (HEK293; ATCC: American Type Culture Collection, Manassas, Va. 20108, USA). The test cell line constitutively expresses a modified form of the calcium-sensitive photoprotein aequorin which, after reconstitution with the cofactor coelenterazine, emits light when the free calcium concentration in the inner mitochondrial compartment is increased (Rizzuto R, Simpson A W, Brini M, Pozzan T.; Nature 1992, 358, 325-327). Additionally, the cell stably expresses the endogenous human PAR1 receptor and the endogenous purinergic receptor P2Y2. The resulting PAR1 test cell responds to stimulation of the endogenous PAR1 or P2Y2 receptor with an intracellular release of calcium ions, which can be quantified through resulting aequorin luminescence with a suitable luminometer (Milligan G, Marshall F, Rees S, Trends in Pharmacological Sciences 1996, 17, 235-237).
For testing the substance specificity, its effect after activation of the endogenous PAR1 receptor is compared to the effect after activation of the endogenous purinergic P2Y2 receptor which utilizes the same intracellular signal path.
Test procedure: The cells are plated out two days (48 hours) before the test in culture medium (DMEM F12, supplemented with 10% FCS, 2 mM glutamine, 20 mM HEPES, 1.4 mM pyruvate, 0.1 mg/ml gentamycin, 0.15% Na bicarbonate; BioWhittaker Cat.# BE04-687Q; B-4800 Verviers, Belgium) in 384-well microtitre plates and kept in a cell incubator (96% atmospheric humidity, 5% V/V CO2, 37° C.). On the day of the test, the culture medium is replaced by a tyrode solution (in mM: 140NaCl, 5l KCl, 1MgCl2, 2CaCl2, 20 glucose, 20 HEPES), which additionally contains the cofactor coelenterazine (25 μM) and glutathione (4 mM), and the microtitre plate is then incubated for a further 3-4 hours. The test substances are then pipetted onto the microtitre plate, and 5 minutes after the transfer of the test substances into the wells of the microtitre plate the plate is transferred into the luminometer, a PAR1 agonist concentration which corresponds to the EC50 is added and the resulting light signal is immediately measured in the luminometer. To distinguish an antagonist substance action from a toxic action, the endogenous purinergic receptor is immediately subsequently activated with agonist (ATP, final concentration 10 μM) and the resulting light signal is measured.

IC50 [nM]	SMILES
28	CCc1ccc(C2CC(c3nc(-c4cccc(OC)c4)no3)CN(C(=O)N3CCOCC3)C2)cc1 (racemic) [Example 28, 4-({3-(4-Ethylphenyl)-5-[3-(3-methoxyphenyl)-1,2,4-oxadiazol-5-yl]piperidin-1-yl}carbonyl)-morpholine]
21	CCc1ccc(C2CC(c3nc(-c4ccc(F)cc4F)no3)CN(C(=O)N3CCOCC3)C2)cc1 (racemic) [Example 37, 4-({3-[3-(2,4-Difluorophenyl)-1,2,4-oxadiazol-5-yl]-5-(4-ethylphenyl)piperidin-1-yl}carbonyl)-morpholine]
47	Cc1ccncc1-c1csc(C2CC(c3ccc(C(F)(F)F)cc3)CN(C(=O)N3CCOCC3)C2)n1 (racemic) [Example 113, 4-({3-[4-(4-Methylpyridin-3-yl)-1,3-thiazol-2-yl]-5-[4-(trifluoromethyl)phenyl]piperidin-1-yl}carbonyl)morpholine]
68	O=C(N1CCOCC1)N1CC(c2ccc(C(F)(F)F)cc2)CC(c2nc(-c3cccnc3)cs2)C1 (racemic) [Example 119, 4-({3-(4-Pyridin-3-yl-1,3-thiazol-2-yl)-5-[4-(trifluoromethyl)phenyl]piperidin-1-yl}carbonyl)-morpholine]
8.51	O=C(N1CC(c2ccc(OC(F)(F)F)cc2)CC(c2nc(C3CC3)no2)C1)N1CCC(F)(F)C1 (racemic) [Example 144, {3-(3-Cyclopropyl-1,2,4-oxadiazol-5-yl)-5-[4-(trifluoromethoxy)phenyl]piperidin-1-yl}(3,3-difluoropyrrolidin-1-yl)methanone]
14	Cc1ccc(C2CC(c3nc(C(C)C)no3)CN(C(=O)N3CCOCC3)C2)cc1C (racemic) [Example 148, {3-(3,4-Dimethylphenyl)-5-[3-(propan-2-yl)-1,2,4-oxadiazol-5-yl]piperidin-1-yl}(morpholin-4-yl)methanone]
19	CCc1ccc(C2CC(c3nc(CCOC)no3)CN(C(=O)N3CCOCC3)C2)cc1 (racemic) [Example 150, {3-(4-Ethylphenyl)-5-[3-(2-methoxyethyl)-1,2,4-oxadiazol-5-yl]piperidin-1-yl}(morpholin-4-yl)methanone]
48.1	CCc1ccc(C2CC(c3nc(C(C)(C)C)no3)CN(C(=O)N3CCC(O)CC3)C2)cc1 (racemic) [Example 152]
4.61	O=C(N1CCOCC1)N1CC(c2ccc(C(F)(F)F)cc2)CC(c2noc(-c3cccc(F)c3)n2)C1 (racemic) [Example 159, {3-[5-(3-Fluorophenyl)-1,2,4-oxadiazol-3-yl]-5-[4-(trifluoromethyl)phenyl]piperidin-1-yl}-(morpholin-4-yl)methanone]
5.4	O=C(N1CCOCC1)N1CC(c2ccc(C(F)(F)F)cc2)CC(c2noc(-c3ccccc3)n2)C1 (racemic) [Example 160, Morpholin-4-yl{3-(5-phenyl-1,2,4-oxadiazol-3-yl)-5-[4(trifluoromethyl)phenyl]piperidin-1-yl}-methanone]
6.74	CC(C)c1nc(C2CC(c3ccc(C(F)(F)F)cc3)CN(C(=O)N3CCOCC3)C2)no1 (racemic) [Example 169, Morpholin-4-yl{3-[5-(propan-2-yl)-1,2,4-oxadiazol-3-yl]-5-[4-(trifluoromethyl)phenyl]piperidin-1-yl}methanone]
28.8	CC1CN(C(=O)N2CC(c3ccc(C(F)(F)F)cc3)CC(c3nc(C4CC4)no3)C2)C1 (racemic) [Example 181, {3-(3-Cyclopropyl-1,2,4-oxadiazol-5-yl)-5-[4-(trifluoromethyl)phenyl]piperidin-1-yl}(3-methylazetidin-1-yl)methanone]
31.5	CCc1ccc(C2CC(c3nc(CCOC)no3)CN(C(=O)N3CCC(O)CC3)C2)cc1 (racemic) [Example 183, {3-(4-Ethylphenyl)-5-[3-(2-methoxyethyl)-1,2,4-oxadiazol-5-yl]piperidin-1-yl}(4-hydroxy-piperidin-1-yl)methanone]
